Assay results reported in PubChem BioAssay AID248 (DTP/NCI, 2004).
Several values for one entry are separate records, joined by “and”; a condition that tells them apart may be missing. Equal values may be shown once. Inconclusive results and toxic doses are left out. Rule as the data show it: active = T/C of 150% or more; inactive = T/C below 125%.

System: L1210 leukemia ip in BDF1 mice, survival T/C
Test: NCI In Vivo Anticancer Drug Screen. Data for tumor model L1210 Leukemia (intraperitoneal) in B6D2F1 (BDF1) mice
Conditions: endpoint: mean survival time, higher = longer survival
Summary of the method: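 In this screen, tumor-bearing mice given compound are compared to those given vehicle, and their survival values are reported as a treated-to-control quotient.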

[1] = dose: 100.0 mg/kg/injection, schedule: Q01DX009 (ip), vehicle: saline with Tween-80
[2] = dose: 100.0 mg/kg/injection, schedule: Q04DX003 (ip), vehicle: saline with Tween-80
[3] = dose: 200.0 mg/kg/injection, schedule: Q01DX009 (ip), vehicle: saline with Tween-80
[4] = dose: 200.0 mg/kg/injection, schedule: Q04DX003 (ip), vehicle: saline with Tween-80
[5] = dose: 400.0 mg/kg/injection, schedule: Q01DX009 (ip), vehicle: saline with Tween-80
[6] = dose: 400.0 mg/kg/injection, schedule: Q04DX003 (ip), vehicle: saline with Tween-80
[7] = dose: 100.0 mg/kg/injection, schedule: Q01DX001 (ip), vehicle: Klucel (hydroxypropylcellulose) (HPC)
[8] = dose: 100.0 mg/kg/injection, schedule: Q01DX009 (ip), vehicle: saline
[9] = dose: 200.0 mg/kg/injection, schedule: Q01DX001 (ip), vehicle: Klucel (hydroxypropylcellulose) (HPC)
[10] = dose: 200.0 mg/kg/injection, schedule: Q01DX009 (ip), vehicle: saline
[11] = dose: 400.0 mg/kg/injection, schedule: Q01DX001 (ip), vehicle: Klucel (hydroxypropylcellulose) (HPC)
[12] = dose: 50.0 mg/kg/injection, schedule: Q01DX009 (ip), vehicle: saline
[13] = dose: 75.0 mg/kg/injection, schedule: Q01DX001 (ip), vehicle: saline
[14] = dose: 150.0 mg/kg/injection, schedule: Q01DX001 (ip), vehicle: saline
[15] = dose: 100.0 mg/kg/injection, schedule: Q04DX002 (ip), vehicle: Klucel (hydroxypropylcellulose) (HPC)
[16] = dose: 200.0 mg/kg/injection, schedule: Q04DX002 (ip), vehicle: Klucel (hydroxypropylcellulose) (HPC)
[17] = dose: 400.0 mg/kg/injection, schedule: Q04DX002 (ip), vehicle: Klucel (hydroxypropylcellulose) (HPC)
[18] = dose: 100.0 mg/kg/injection, schedule: Q01DX009 (ip), vehicle: Klucel (hydroxypropylcellulose) (HPC)
[19] = dose: 200.0 mg/kg/injection, schedule: Q01DX009 (ip), vehicle: Klucel (hydroxypropylcellulose) (HPC)
[20] = dose: 400.0 mg/kg/injection, schedule: Q01DX009 (ip), vehicle: Klucel (hydroxypropylcellulose) (HPC)

Measured: T/C

OCCCOc1ccc(Cl)cc1Cl
inactive: dose: 100.0 mg/kg/injection, schedule: Q04DX002 (sc), vehicle: olive oil, sesame oil, peanut oil 100 % of control | dose: 200.0 mg/kg/injection, schedule: Q04DX002 (sc), vehicle: olive oil, sesame oil, peanut oil 95 % of control | dose: 400.0 mg/kg/injection, schedule: Q04DX002 (sc), vehicle: olive oil, sesame oil, peanut oil 110 % of control

CSC1C(O)C(CO)OC1n1cnc2c(N)ncnc21 (centres undefined)
inactive: dose: 100.0 mg/kg/injection, schedule: Q01DX005 (ip), vehicle: saline 100 % of control | dose: 200.0 mg/kg/injection, schedule: Q01DX005 (ip), vehicle: saline 106 % of control

Fc1c(F)c(F)c(Oc2c(F)c(F)c(C(F)(F)F)c(F)c2F)c(F)c1F
inactive: [1] 102 % of control | [2] 94 % of control | [3] 98 % of control | [4] 92 % of control | [5] 98 % of control | [6] 92 % of control

Nc1ccc2c3c(cccc13)C(=O)OC2=O
inactive: [7] 91 % of control | [8] 92 % of control | [9] 94 % of control | [10] 95 % of control | [11] 94 % of control | dose: 400.0 mg/kg/injection, schedule: Q01DX009 (ip), vehicle: saline 90 % of control

Cc1ccc(C(C)C)c(OCC2=NCCN2C)c1
inactive: [12] 100 % of control | [8] 98 % of control | [10] 115 % of control

NNC(=O)CCc1ccccc1[N+](=O)[O-]
inactive: dose: 40.0 mg/kg/injection, schedule: Q04DX003 (ip), vehicle: saline 108 % of control | [13] 93 % of control | dose: 75.0 mg/kg/injection, schedule: Q04DX003 (ip), vehicle: saline 98 % of control | [14] 96 % of control | dose: 150.0 mg/kg/injection, schedule: Q04DX003 (ip), vehicle: saline 101 % of control

CCCCCCCCCCCC(=O)Nc1ccc(NC(C)=O)cc1
inactive: [1] 96 % of control and 104 % of control | dose: 100.0 mg/kg/injection, schedule: Q04DX002 (ip), vehicle: saline with Tween-80 93 % of control and 94 % of control | [2] 95 % of control | [3] 93 % of control and 96 % of control | dose: 200.0 mg/kg/injection, schedule: Q04DX002 (ip), vehicle: saline with Tween-80 111 % of control and 91 % of control | [4] 108 % of control | [5] 96 % of control | dose: 400.0 mg/kg/injection, schedule: Q04DX002 (ip), vehicle: saline with Tween-80 96 % of control and 102 % of control | [6] 95 % of control

O=C(O)c1c2ccccc2nc2[nH]c(=O)[nH]c(=O)c12
inactive: [15] 97 % of control | [16] 108 % of control | [17] 108 % of control

COc1ccc(Cl)cc1NS(=O)(=O)c1ccc(Cl)c([N+](=O)[O-])c1
inactive: [18] 98 % of control | [19] 109 % of control | [20] 98 % of control

CC1CCC(Oc2nc3c(c(=O)n(C)c(=O)n3C)n2C)CC1 (centres undefined)
inactive: dose: 50.0 mg/kg/injection, schedule: Q01DX001 (ip), vehicle: other 104 % of control and 100 % of control | dose: 100.0 mg/kg/injection, schedule: Q01DX001 (ip), vehicle: other 101 % of control and 103 % of control | dose: 200.0 mg/kg/injection, schedule: Q01DX001 (ip), vehicle: other 101 % of control and 92 % of control | dose: 400.0 mg/kg/injection, schedule: Q01DX001 (ip), vehicle: other 95 % of control

S=C(Nc1ccccc1)N1CCN2CCCCC2C1 (centres undefined)
inactive: dose: 75.0 mg/kg/injection, schedule: Q01DX001 (ip), vehicle: acetone 100 % of control | dose: 150.0 mg/kg/injection, schedule: Q01DX001 (ip), vehicle: acetone 107 % of control | dose: 300.0 mg/kg/injection, schedule: Q01DX001 (ip), vehicle: acetone 92 % of control

CCCCCC(=N\N=C(N)N)/C(C)=N/N=C(N)N
inactive: dose: 7.5 mg/kg/injection, schedule: Q01DX Z (ip), vehicle: saline 106 % of control | dose: 15.0 mg/kg/injection, schedule: Q01DX Z (ip), vehicle: saline 111 % of control | dose: 30.0 mg/kg/injection, schedule: Q01DX Z (ip), vehicle: saline 93 % of control

COc1ccc(NC(c2ccco2)P(=O)(c2ccccc2)c2ccccc2)cc1 (centres undefined)
inactive: [18] 91 % of control | [19] 104 % of control | [20] 98 % of control

NC1=NCCN1c1cccc2ccccc12
inactive: dose: 75.0 mg/kg/injection, schedule: Q01DX001 (ip), vehicle: carboxymethylcellulose (CMC) 102 % of control | dose: 150.0 mg/kg/injection, schedule: Q01DX001 (ip), vehicle: carboxymethylcellulose (CMC) 98 % of control

Cc1ccc(Nc2nc(N)nc(N)c2N=O)cc1C
inactive: dose: 100.0 mg/kg/injection, schedule: Q01DX Z (ip), vehicle: methylcellulose (MC) 116 % of control | [9] 106 % of control | dose: 200.0 mg/kg/injection, schedule: Q01DX Z (ip), vehicle: methylcellulose (MC) 98 % of control

Cc1cc(OC(=O)Nc2cccc([N+](=O)[O-])c2)cc(C)c1Cl
inactive: [18] 100 % of control | [19] 90 % of control | [20] 93 % of control

CCCCNC(=O)Nc1ccc(Cl)cc1C(=O)c1ccccc1
inactive: [15] 105 % of control | [16] 102 % of control | [17] 94 % of control

O=c1[nH]c(-c2cccc([N+](=O)[O-])c2)nc2[nH]ncc12
inactive: dose: 25.0 mg/kg/injection, schedule: Q01DX001 (ip), vehicle: Klucel (hydroxypropylcellulose) (HPC) 94 % of control | dose: 50.0 mg/kg/injection, schedule: Q01DX001 (ip), vehicle: Klucel (hydroxypropylcellulose) (HPC) 94 % of control | [7] 98 % of control

Cc1ccc2c(c1)P(O)(=S)c1cc(F)ccc1O2 (centres undefined)
inactive: [12] 113 % of control | [8] 103 % of control | [10] 110 % of control

CN(C)c1ccc(/C=C/C=C2\c3ccccc3-c3ccc([N+](=O)[O-])cc32)cc1
inactive: [2] 93 % of control | [4] 102 % of control | [6] 94 % of control

CCOC(=O)CNC(=O)OCCOc1ccc(-c2ccccc2)cc1
inactive: [1] 98 % of control | [3] 97 % of control | [5] 95 % of control

O=S1Oc2ccccc2O1
inactive: [13] 117 % of control | [14] 103 % of control

CCOP(=O)(OCC)/C(=C\c1ccccc1)C(=O)c1ccccc1
inactive: dose: 25.0 mg/kg/injection, schedule: Q04DX003 (ip), vehicle: Klucel (hydroxypropylcellulose) (HPC) 87 % of control | dose: 50.0 mg/kg/injection, schedule: Q04DX003 (ip), vehicle: Klucel (hydroxypropylcellulose) (HPC) 87 % of control | [7] 107 % of control | dose: 100.0 mg/kg/injection, schedule: Q04DX003 (ip), vehicle: Klucel (hydroxypropylcellulose) (HPC) 90 % of control | [9] 98 % of control | [11] 106 % of control

CCCCCCCC(=O)Nc1cccc(O)c1
inactive: [2] 96 % of control | [4] 95 % of control | [6] 96 % of control

COc1cc2c(c(O)c1OC)c(=O)c1ccccc1n2C
inactive: dose: 60.0 mg/kg/injection, schedule: Q01DX Z (ip), vehicle: carboxymethylcellulose (CMC) 103 % of control | dose: 120.0 mg/kg/injection, schedule: Q01DX Z (ip), vehicle: carboxymethylcellulose (CMC) 102 % of control | dose: 240.0 mg/kg/injection, schedule: Q01DX Z (ip), vehicle: carboxymethylcellulose (CMC) 97 % of control

COC(=O)/C=C(\C)Nc1ccc(-c2ccccc2)cc1
inactive: [12] 103 % of control | dose: 100.0 mg/kg/injection, schedule: Q01DX001 (ip), vehicle: saline 97 % of control | [8] 102 % of control | dose: 100.0 mg/kg/injection, schedule: Q04DX003 (ip), vehicle: saline 101 % of control | dose: 200.0 mg/kg/injection, schedule: Q01DX001 (ip), vehicle: saline 95 % of control | [10] 100 % of control | dose: 200.0 mg/kg/injection, schedule: Q04DX003 (ip), vehicle: saline 97 % of control | dose: 400.0 mg/kg/injection, schedule: Q01DX001 (ip), vehicle: saline 92 % of control | dose: 400.0 mg/kg/injection, schedule: Q04DX003 (ip), vehicle: saline 97 % of control
